Test results as given in the supplement of paper PMC10307832.

Columns and labels:
Test in all cases: relative viability (nuclei count vs DMSO), 5 days (fraction); higher = more cells survive
[1] = compound: CC1=CC(=CC=C1)NC2=NC(=CS2)C3=CC=NC=C3 + CC(=O)c1c(C)c2cnc(Nc3ccc(N4CCNCC4)cn3)nc2n(C2CCCC2)c1=O [Palbociclib] (partner 0.5 µM)
Outline: (§1)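 A single step with final 0.05% Triton X-100, 1% formaldehyde and 1 ug/ml Hoechst fixed the cells and stained nuclei 5 days after treatment. Lung cancer cell lines in 1536-well plates had been treated by pin tool the day after seeding with one drug alone or a fixed anchor-drug dose plus five library-drug doses (not always all listed) in √10 steps, and nuclei were counted on 4× images. Relative viability is the ratio of nuclei in treated wells to nuclei in vehicle wells, taken as the median of duplicate plates.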

Masitinib + Crizotinib = compound: Cc1ccc(NC(=O)c2ccc(CN3CCN(C)CC3)cc2)cc1Nc1nc(-c2cccnc2)cs1 [Masitinib] + C[C@@H](Oc1cc(-c2cnn(C3CCNCC3)c2)cnc1N)c1c(Cl)ccc(F)c1Cl [Crizotinib] (partner 1 µM)
Outline: as §1

[2] = compound: CC1=CC(=CC=C1)NC2=NC(=CS2)C3=CC=NC=C3 + CC1(C)CCC(c2ccc(Cl)cc2)=C(CN2CCN(c3ccc(C(=O)NS(=O)(=O)c4ccc(N[C@H](CCN5CCOCC5)CSc5ccccc5)c(S(=O)(=O)C(F)(F)F)c4)cc3)CC2)C1 [Navitoclax] (partner 0.5 µM)
Outline: as §1

Masitinib + Linsitinib = compound: Cc1ccc(NC(=O)c2ccc(CN3CCN(C)CC3)cc2)cc1Nc1nc(-c2cccnc2)cs1 [Masitinib] + C[C@]1(O)C[C@@H](c2nc(-c3ccc4ccc(-c5ccccc5)nc4c3)c3c(N)nccn32)C1 [Linsitinib] (partner 1 µM)
Outline: as §1

Row | Cell Line | relative viability ([1]; first compound 0.08 µM) | relative viability ([1]; first compound 0.253 µM) | relative viability ([1]; first compound 0.8 µM) | relative viability ([1]; first compound 2.53 µM) | relative viability ([1]; first compound 8 µM) | relative viability (Masitinib + Crizotinib; first compound 0.01 µM) | relative viability (Masitinib + Crizotinib; first compound 0.03162 µM) | relative viability (Masitinib + Crizotinib; first compound 0.1 µM) | relative viability (Masitinib + Crizotinib; first compound 0.3162 µM) | relative viability (Masitinib + Crizotinib; first compound 1 µM) | relative viability ([2]; first compound 0.08 µM) | relative viability ([2]; first compound 0.253 µM) | relative viability ([2]; first compound 0.8 µM) | relative viability ([2]; first compound 2.53 µM) | relative viability ([2]; first compound 8 µM) | relative viability (Masitinib + Linsitinib; first compound 0.01 µM) | relative viability (Masitinib + Linsitinib; first compound 0.03162 µM) | relative viability (Masitinib + Linsitinib; first compound 0.1 µM) | relative viability (Masitinib + Linsitinib; first compound 0.3162 µM) | relative viability (Masitinib + Linsitinib; first compound 1 µM)
1 | HCC-78 | 0.367 | 0.438 | 0.4 | 0.447 | 0.511 | 0.356 | 0.445 | 0.334 | 0.288 | 0.293 | 0.67 | 0.883 | 0.841 | 0.746 | 0.788 | 0.417 | 0.423 | 0.55 | 0.557 | 0.486
2 | HCC-366 | 0.372 | 0.343 | 0.274 | 0.275 | 0.257 | 0.467 | 0.517 | 0.721 | 0.334 | 0.444 | 0.934 | 1.04 | 1.04 | 0.884 | 0.949 | 0.728 | 0.521 | 0.841 | 0.753 | 0.55
3 | HCC-827 | 0.495 | 0.435 | 0.431 | 0.518 | 0.37 | 0.725 | 0.961 | 0.95 | 0.893 | 0.895 | 0.989 | 0.937 | 0.956 | 1.02 | 0.935 | 1.03 | 0.969 | 0.976 | 0.935 | 0.935
4 | HOP-62 | 0.454 | 0.446 | 0.497 | 0.447 | 0.571 | 0.659 | 0.88 | 1.09 | 1.08 | 0.898 | 0.865 | 1.01 | 1.13 | 1.11 | 1.01 | 0.916 | 0.978 | 0.973 | 0.917 | 0.833
5 | IA-LM |  |  |  |  |  |  |  | 0.871 | 0.618 | 0.84 | 0.74 |  | 0.769 | 0.439 | 0.401 | 0.365 | 0.541 | 0.557 | 0.504 | 0.451
6 | LC-2-ad | 0.469 | 0.532 | 0.466 | 0.542 | 0.436 | 0.347 | 0.399 | 0.466 | 0.473 | 0.373 | 0.395 | 0.379 | 0.383 | 0.464 | 0.278 | 0.876 | 0.83 | 0.791 | 0.855 | 0.833
7 | LCLC-103H | 0.402 | 0.445 | 0.477 | 0.406 | 0.507 | 0.783 | 1.08 | 0.891 | 0.969 | 1.03 |  |  |  |  |  | 0.796 | 1.02 | 0.859 | 1.01 | 1.08
8 | NCI-H358 | 0.132 | 0.15 | 0.151 | 0.144 | 0.129 | 0.406 | 0.534 | 0.588 | 0.473 | 0.533 |  |  |  |  |  | 0.86 | 0.877 | 0.715 | 0.809 | 0.623
9 | NCI-H522 | 1.19 | 0.797 | 0.92 | 0.954 | 0.947 |  |  |  |  |  |  |  |  |  |  |  |  |  |  | 
10 | NCI-H596 |  |  |  |  |  | 0.964 | 1.1 | 1.06 | 0.931 | 0.981 | 0.935 | 0.943 | 0.725 | 0.942 | 0.643 | 1.21 | 0.98 | 1.05 | 1.14 | 1.05
11 | NCI-H650 | 0.256 | 0.339 | 0.322 | 0.342 | 0.371 | 0.741 | 0.66 | 0.932 | 0.643 | 0.805 |  |  |  |  |  | 0.796 | 0.752 | 0.896 | 0.981 | 0.806
12 | NCI-H661 | 0.433 | 0.395 | 0.391 | 0.386 | 0.351 | 0.737 | 1.2 | 0.964 | 0.93 | 0.844 |  |  |  |  |  | 0.653 | 0.569 | 0.577 | 0.584 | 0.428
13 | NCI-H1299 |  |  |  |  |  | 0.947 | 0.989 | 1.02 | 1.01 | 0.96 | 0.981 | 0.99 | 0.986 | 1.07 | 1.01 | 0.778 | 1.02 | 1.06 | 1.09 | 0.879
14 | NCI-H1395 | 0.577 |  | 0.546 | 0.556 | 0.606 |  |  |  |  |  | 0.984 | 1.1 | 1.04 | 0.971 | 0.993 | 1.05 | 1.09 | 1.09 | 0.959 | 1.02
15 | NCI-H1563 |  |  |  |  |  | 0.833 | 0.865 | 0.907 | 0.814 | 0.868 |  |  |  |  |  | 1.17 | 1.09 | 1.19 | 1.26 | 1.17
16 | NCI-H1648 | 0.242 | 0.263 | 0.281 | 0.295 | 0.302 |  |  |  |  |  |  |  |  |  |  |  |  |  |  | 
17 | NCI-H1650 | 0.278 | 0.281 | 0.449 | 0.235 | 0.239 | 0.958 | 1.09 | 0.876 | 0.862 | 1.02 | 1.07 | 0.938 | 0.935 | 1.13 | 0.811 |  |  |  |  | 
18 | NCI-H1703 |  |  |  |  |  | 0.483 | 0.758 | 0.293 | 0.492 | 0.139 | 0.92 | 1.13 | 1.38 | 1.26 | 1.07 | 0.667 | 1.02 | 0.479 | 0.23 | 0.187
19 | NCI-H1793 | 0.269 | 0.305 | 0.297 | 0.261 | 0.336 |  |  |  |  |  |  | 0.521 | 0.523 | 0.438 | 0.402 | 0.875 | 0.839 | 0.812 | 0.998 | 0.647
20 | NCI-H2170 | 0.358 | 0.403 | 0.358 | 0.435 | 0.299 | 1.38 | 1.18 | 1.37 | 1.3 | 1.11 | 0.631 | 0.575 | 0.538 | 0.545 | 0.426 |  |  |  |  | 
21 | NCI-H2342 | 0.455 | 0.491 | 0.557 | 0.503 | 0.497 |  |  |  |  |  |  |  |  |  |  |  |  |  |  | 
22 | SW 900 | 0.508 | 0.464 | 0.49 | 0.477 | 0.46 |  |  |  |  |  |  |  |  |  |  |  |  |  |  | 
